In series [1] the target is T1, Growth hormone secretagogue receptor type 1 (Homo sapiens, UniProt Q92847). The series can be described thus: Agonist activity at human GHSR1a by FLIPR assay relative to human ghrelin. Type of series: functional.
The target of series [2] is T1, Growth hormone secretagogue receptor type 1. The series can be described thus: Agonist activity at human GHSR1a by FLIPR assay. Type of series: functional.
Series [3] can be described thus: Volume of distribution at steady state in Sprague-Dawley rat. In kind it is ADME, organism-based. The following applies: in vivo, read-out: Vdss.
Series [4] in a line: Clearance in Sprague-Dawley rat at 1 mg/kg, iv. In kind it is ADME, organism-based. Also on record: dose 1 mg/kg, route intravenous. The note with it: in vivo.
Series [5] can be described thus: Oral bioavailability in Sprague-Dawley rat at 3 mg/kg. In kind it is ADME, organism-based. The note with it: in vivo.
Another series has as its system Rattus norvegicus. The series can be described thus: Effect on food intake in Sprague-Dawley rat at 3 mg/kg, po after 2 hrs. Type of series: functional.
Series [6] has as its target 5-hydroxytryptamine receptor 1B (Homo sapiens, UniProt P28222). The series can be described thus: Binding affinity to 5HT1B receptor.
Series [7] is described as follows: Half life in Sprague-Dawley rat. Type of series: ADME, organism-based. The following applies: in vivo.

T1 sequence (Q92847 whole entry): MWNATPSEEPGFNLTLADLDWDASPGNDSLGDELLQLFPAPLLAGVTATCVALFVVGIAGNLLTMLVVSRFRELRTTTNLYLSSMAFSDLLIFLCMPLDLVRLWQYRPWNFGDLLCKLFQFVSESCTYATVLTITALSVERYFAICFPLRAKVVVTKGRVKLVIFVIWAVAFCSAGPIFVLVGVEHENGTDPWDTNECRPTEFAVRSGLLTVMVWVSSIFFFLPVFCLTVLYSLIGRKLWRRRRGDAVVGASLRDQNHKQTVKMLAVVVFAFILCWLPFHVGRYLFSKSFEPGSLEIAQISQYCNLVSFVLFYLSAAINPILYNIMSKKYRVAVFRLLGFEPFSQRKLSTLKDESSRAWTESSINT
5-hydroxytryptamine receptor 1B, sequence (P28222 whole entry): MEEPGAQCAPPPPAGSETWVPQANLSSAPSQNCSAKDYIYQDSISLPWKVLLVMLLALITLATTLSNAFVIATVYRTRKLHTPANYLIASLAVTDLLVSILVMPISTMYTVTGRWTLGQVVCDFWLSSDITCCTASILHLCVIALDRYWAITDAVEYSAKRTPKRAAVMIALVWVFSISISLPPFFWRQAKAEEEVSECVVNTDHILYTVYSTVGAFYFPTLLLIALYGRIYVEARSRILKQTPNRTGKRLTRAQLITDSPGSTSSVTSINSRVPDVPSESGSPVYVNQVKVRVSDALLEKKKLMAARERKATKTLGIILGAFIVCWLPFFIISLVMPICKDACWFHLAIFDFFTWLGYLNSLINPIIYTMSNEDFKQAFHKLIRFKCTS

In series [1], `COc1ccc(F)c(-c2ccc(S(=O)(=O)Nc3cc(N4C[C@@H](C)N[C@@H](C)C4)ccc3OC)cc2)c1` displayed an Intrinsic activity of 1.2. The molecule further had a 50% effective concentration (EC50) in series [2] of 0.398 nM.
For the molecule `COc1ccc(N2C[C@@H](C)N[C@@H](C)C2)cc1NS(=O)(=O)c1ccc(OCc2ccccc2)cc1`, the Intrinsic activity in series [1] came to 0.8. The same molecule showed a concentration giving a half-maximal response (EC50) in series [2] of 100 nM.
Take `COc1cccc(-c2ccc(S(=O)(=O)Nc3cc(N4C[C@@H](C)N[C@@H](C)C4)ccc3OC)cc2)c1`: in series [1], the Intrinsic activity is 1. The molecule also gave an EC50 in series [2] of 2 nM.
In turn, `COc1ccc(N2C[C@@H](C)N[C@@H](C)C2)cc1NS(=O)(=O)c1ccc(-c2ccncc2)cc1` had an Intrinsic activity in series [1] of 0.7. Moreover, the midpoint of the response in series [2], the EC50, lay at 316 nM.
For the molecule `COc1ccc(N2C[C@@H](C)N[C@@H](C)C2)cc1NS(=O)(=O)c1cccc(-c2ccco2)c1`, in series [1], the Intrinsic activity worked out at 1. In series [2], this molecule had a 50% effective concentration (EC50) of 20 nM.
For `COc1ccc(N2C[C@@H](C)N[C@@H](C)C2)cc1NS(=O)(=O)c1ccc(-c2cccs2)cc1F`, in that order: 0.9 and 2 nM.
In series [1], `CCOc1ccc(N2C[C@@H](C)N[C@@H](C)C2)cc1NS(=O)(=O)c1ccc(-c2ccccn2)s1` yielded an Intrinsic activity of 0.8. The midpoint of the response in series [2], the EC50, lay at 39.8 nM.
As to `C[C@@H]1CN(c2cccc(NS(=O)(=O)c3ccc(-c4ccccn4)s3)c2)C[C@H](C)N1`, the Intrinsic activity in series [1] was found to be 0.8. The molecule further had a concentration for a half-maximal effect (EC50) in series [2] of 39.8 nM.
`COc1ccc(N2C[C@@H](C)N[C@@H](C)C2)cc1NS(=O)(=O)c1ccc(-n2cccn2)cc1` had an Intrinsic activity in series [1] of 0.8. The same molecule had an EC50 in series [2] of 15.8 nM.
In turn, `C[C@@H]1CN(c2ccc(Cl)c(NS(=O)(=O)c3ccc(-c4ccccn4)s3)c2)C[C@H](C)N1` yielded an Intrinsic activity in series [1] of 1. Besides, the EC50 in series [2] was 39.8 nM.
Take `COc1ccc(N2C[C@@H](C)N[C@@H](C)C2)cc1NS(=O)(=O)c1ccc(-c2cncnc2)cc1`: in series [1], the Intrinsic activity turned out to be 0.6. This molecule gave a concentration giving a half-maximal response (EC50) in series [2] of 316 nM.
As to `CC(C)Oc1ccc(N2C[C@@H](C)N[C@@H](C)C2)cc1NS(=O)(=O)c1ccc(-c2ccccn2)s1`, the Intrinsic activity in series [1] was 1.1. The molecule further had an EC50 in series [2] of 100 nM.
Consider `COc1ccc(N2C[C@@H](C)N[C@@H](C)C2)cc1NS(=O)(=O)c1ccc(-c2ccc(C)o2)cc1`, for which, in series [3], the Vd came out at 3.3 L/kg. In addition, the Intrinsic activity in series [1] amounted to 1. Also, the clearance in series [4] came out at 24 mL/min/kg. The bioavailability in series [5] came out at 75%. The same molecule came in with an Activity in the series on Rattus norvegicus of 544%. Also, the inhibition constant (Ki) in series [6] is > 3160 nM. The EC50 in series [2] was 0.794 nM. In series [7], the half-life was 1.9 h.
Molecule `C[C@@H]1CN(c2cc(NS(=O)(=O)c3ccc(-c4ccccn4)s3)ccc2C#N)C[C@H](C)N1` displayed an Intrinsic activity in series [1] of 0.9. Moreover, in series [2], the 50% effective concentration (EC50) is 631 nM.
Take `C[C@@H]1CN(c2ccc(F)c(NS(=O)(=O)c3ccc(-c4ccccn4)s3)c2)C[C@H](C)N1`: in series [1], the Intrinsic activity worked out at 0.8. This molecule also had an EC50 in series [2] of 100 nM.
`COc1ccc(N2C[C@@H](C)N[C@@H](C)C2)cc1NS(=O)(=O)c1ccc(-c2ccccn2)s1`: the Intrinsic activity in series [1] came out at 1.1. A half-maximal effect in series [2] (EC50) was put at 10 nM.
For `COc1ccc(NS(=O)(=O)c2ccc(-c3ccccn3)s2)cc1N1C[C@@H](C)N[C@@H](C)C1`, in that order: 0.9 and 15.8 nM.
`COc1ccc(N2C[C@@H](C)N[C@@H](C)C2)cc1NS(=O)(=O)c1ccc(-c2cc(Cl)ccc2F)cc1` yielded an Intrinsic activity in series [1] of 1. In series [2], the 50% effective concentration (EC50) is 0.501 nM.
As to `COc1ccc(N2C[C@@H](C)N[C@@H](C)C2)cc1NS(=O)(=O)c1ccc(Oc2ccccc2)cc1`, the Intrinsic activity in series [1] was determined as 0.9. In series [2], the midpoint of the response, the EC50, lay at 63.1 nM.
In series [1], `COc1ccc(N2C[C@@H](C)N[C@@H](C)C2)cc1NS(=O)(=O)c1ccc(-c2cnco2)s1` came in with an Intrinsic activity of 0.9. The response in series [2] was half-maximal at 2.51 nM (EC50).
As for `COc1ccc(N2C[C@@H](C)N[C@@H](C)C2)cc1NS(=O)(=O)c1ccc(-c2cccs2)cc1`, the Vd in series [3] was 1.6 L/kg. In addition, the Intrinsic activity in series [1] stood at 1. In addition, the clearance in series [4] turned out to be 26 mL/min/kg. The molecule further gave a bioavailability in series [5] of 74%. In the series with Rattus norvegicus, this molecule registered an Activity of 292%. For the same molecule, the inhibition constant (Ki) in series [6] is > 3160 nM. In series [2], this molecule gave an EC50 of 3.98 nM. In series [7], this molecule gave a half-life of 1 h.
`COc1ccc(N2C[C@@H](C)N[C@@H](C)C2)cc1NS(=O)(=O)c1ccc(-c2cccs2)cc1Cl`: the Intrinsic activity in series [1] stood at 0.9. For the same molecule, in series [2], the concentration for a half-maximal effect (EC50) is 0.794 nM.
For the molecule `COc1ccc(N2C[C@@H](C)N[C@@H](C)C2)cc1NS(=O)(=O)c1ccc(Br)cc1`, the Intrinsic activity in series [1] came out at 0.7. This molecule also showed an EC50 in series [2] of 126 nM.
In series [1], `COc1ccc(N2C[C@@H](C)N[C@@H](C)C2)cc1NS(=O)(=O)c1ccc(-c2ccccc2)cc1` came in with an Intrinsic activity of 1. The molecule further gave a 50% effective concentration (EC50) in series [2] of 6.31 nM.
For `CC(=O)c1ccc(N2C[C@@H](C)N[C@@H](C)C2)cc1NS(=O)(=O)c1ccc(-c2ccccn2)s1`, in that order: 0.9 and 39.8 nM.
In series [1], `COc1ccc(N2C[C@@H](C)N[C@@H](C)C2)cc1NS(=O)(=O)c1ccc(N2CCCC2=O)cc1` gave an Intrinsic activity of 0.8. In addition, the 50% effective concentration (EC50) in series [2] was 39.8 nM.
`C[C@@H]1CN(c2ccc(C(=O)N(C)C)c(NS(=O)(=O)c3ccc(-c4ccccn4)s3)c2)C[C@H](C)N1`: the Intrinsic activity in series [1] was determined as 0.9. In series [2], this molecule had an EC50 of 794 nM.
For `COc1ccc(N2C[C@@H](C)N[C@@H](C)C2)cc1NS(=O)(=O)c1cccc(-c2ccccc2)c1`, in that order: 1 and 158 nM.
`COc1ccc(N2C[C@@H](C)N[C@@H](C)C2)cc1NS(=O)(=O)c1ccc(-c2ccco2)cc1` registered an Intrinsic activity in series [1] of 0.9. The same molecule had a concentration giving a half-maximal response (EC50) in series [2] of 3.98 nM.

In general, EC50 refers to the concentration needed to bring the measured effect to its halfway point. Low readings indicate an effect from little substance, high ones a need for much substance. For orientation: clearance means the volume of plasma or blood freed of the substance per unit of time. Broadly, the bioavailability is dose-corrected exposure relative to a reference, in per cent. High values mean much systemic uptake, low ones little systemic uptake. A word on the Ki: it is the equilibrium dissociation constant of an inhibitor or competing ligand from its target. Low values mean higher affinity, high ones lower affinity. By half-life is commonly meant the time in which the quantity being followed falls by half. Low readings indicate rapid decline, high ones slow decline.

For the origin of these results see ChEMBL document CHEMBL1144045, “Potent achiral agonists of the growth hormone secretagogue (ghrelin) receptor. Part 2: Lead optimisation” (Bioorg Med Chem Lett, 2008).
